Data taken from patent US7884117B2, “Carbonylamino pyrrolopyrazoles, potent kinase inhibitors” (Pfizer Inc., priority 2005, dated 2011).

Columns and labels:
[1] = molecular target: T1, PAK4 Kinase domain (PAK4 KD) (Homo sapiens, UniProt O96013); test: PAK4 kinase domain enzymatic assay (PK/LDH-coupled, Ki); assay type: biochemical; conditions: PAK4 Kinase Domain
T1 construct: Cloning, expression, and purification of recombinant PAK4 Kinase domain (PAK4 KD); His tag (pET28a(+)/pET24a(+), Ni-NTA purification) (N, cleaved yes); GST (pGST4.5, glutathione column) (N, cleaved yes); made in house; host or cells: E. coli BL21(DE3)
T1 sequence (O96013 321-572 limits assumed): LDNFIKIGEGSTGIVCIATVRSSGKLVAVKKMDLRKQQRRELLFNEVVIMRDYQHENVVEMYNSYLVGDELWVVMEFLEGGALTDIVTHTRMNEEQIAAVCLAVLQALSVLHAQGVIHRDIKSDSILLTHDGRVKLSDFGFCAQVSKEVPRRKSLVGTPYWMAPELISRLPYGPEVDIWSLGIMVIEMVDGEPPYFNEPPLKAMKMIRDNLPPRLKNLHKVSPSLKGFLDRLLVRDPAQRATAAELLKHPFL

[2] = molecular target: T2, PAK4 kinase activity in whole cells (TR-293-KDG, modified HEK 293) (Homo sapiens, UniProt O96013); test: PAK4 cellular assay: sandwich ELISA of PAK4-dependent phosphorylation of GEF-H1b in TR-293-KDG cells; assay type: cell-based; conditions: 3-hour exposure
T2 construct: engineered to overexpress both GEF-H1b and the kinase domain (KD) of PAK4; expressed in transfected cells; host or cells: TR-293-KDG (modified HEK 293, Trex system, Invitrogen)
T2 sequence (O96013 321-572 limits assumed): as above

| SMILES | Ki [1] [nM] | EC50 [2] [nM] |
| --- | --- | --- |
| CN(C)C[C@@H](OC(=O)N1Cc2c(NC(=O)[C@@H]3CCCO3)n[nH]c2C1(C)C)c1ccccc1 [Example 92, (S)-2-(dimethylamino)-1-phenylethyl 6,6-dimethyl-3-((S)-tetrahydrofuran-2-carboxamido)pyrrolo[3,4-c]pyrazole-5(1H,4H,6H)-carboxylate] | 345 | 103 |
| COC[C@@H](CN(C)C)OC(=O)N1Cc2c(NC(=O)c3ccc(F)cc3)n[nH]c2C1(C)C [Example 77, (1R)-2-(dimethylamino)-1-(methoxymethyl)ethyl 3-[(4-fluorobenzoyl)amino]-6,6-dimethyl-4,6-dihydropyrrolo[3,4-c]pyrazole-5(1H)-carboxylate] | 345 | 167 |
| CN(C)C[C@@H](OC(=O)N1Cc2c(NC(=O)c3cn(C)cn3)n[nH]c2C1(C)C)c1ccccc1 [Example 69, (1S)-2-(dimethylamino)-1-phenylethyl 6,6-dimethyl-3-{[(1-methyl-1H-imidazol-4-yl)carbonyl]amino}-4,6-dihydropyrrolo[3,4-c]pyrazole-5(1H)-carboxylate] | 149 | 226 |
| CN(C)C[C@@H](OC(=O)N1Cc2c(NC(=O)c3ccc(C(F)(F)F)cc3)n[nH]c2C1(C)C)c1ccccn1 [Example 27, (1R)-2-(dimethylamino)-1-pyridin-2-ylethyl 6,6-dimethyl-3-{[4-(trifluoromethyl)benzoyl]amino}-4,6-dihydropyrrolo[3,4-c]pyrazole-5(1H)-carboxylate] | 82.1 | 79.9 |
| COc1ccc(CC(=O)Nc2n[nH]c3c2CN(C(=O)O[C@H](CN(C)C)c2ccccn2)C3(C)C)cc1 [Example 88, (1R)-2-(dimethylamino)-1-pyridin-2-ylethyl 3-{[(4-methoxyphenyl)-acetyl]amino}-6,6-dimethyl-4,6-dihydropyrrolo[3,4-c]pyrazole-5(1H)-carboxylate] | 35.6 | 88 |
| C[C@@H](CN(C)C)OC(=O)N1Cc2c(NC(=O)c3ccccc3)n[nH]c2C1(C)C [Example 73, (1S)-2-(dimethylamino)-1-methylethyl 3-(benzoylamino)-6,6-dimethyl-4,6-dihydropyrrolo [3,4-c]pyrazole-5(1H)-carboxylate] | 354 | 200 |
| CN(C)C[C@@H](NC(=O)N1Cc2c(NC(=O)c3cscn3)n[nH]c2C1(C)C)c1ccccc1 [Example 72, N-[(1S)-2-(dimethylamino)-1-phenylethyl]-6,6-dimethyl-3-[(1,3-thiazol-4-ylcarbonyl)amino]-4,6-dihydropyrrolo[3,4-c]pyrazole-5(1H)-carboxamide] | 93.8 | 362 |
| CN(C)C[C@@H](OC(=O)N1Cc2c(NC(=O)c3ccccn3)n[nH]c2C1(C)C)c1ccccc1 [Example 6, (1S)-2-(dimethylamino)-1-phenylethyl 6,6-dimethyl-3-[(pyridin-2-ylcarbonyl)amino]-4,6-dihydropyrrolo[3,4-c]pyrazole-5(1H)-carboxylate] | 30.9 | 27.9 |
| CN(C)C[C@@H](OC(=O)N1Cc2c(NC(=O)C3CN(C)CCO3)n[nH]c2C1(C)C)c1ccccc1 (stereo partly drawn) [Example 17, (1S)-2-(dimethylamino)-1-phenylethyl 6,6-dimethyl-3-{[(4-methylmorpholin-2-yl)carbonyl]amino}-4,6-dihydropyrrolo[3,4-c]pyrazole-5(1H)-carboxylate] | 259 | 110 |
| CN(C)C[C@@H](OC(=O)N1Cc2c(NC(=O)[C@@H]3C[C@H]3c3ccccc3)n[nH]c2C1(C)C)c1ccccc1 [Example 20, (1S)-2-(dimethylamino)-1-phenylethyl 6,6-dimethyl-3-({[trans-2-phenylcyclopropyl]carbonyl}amino)-4,6-dihydropyrrolo[3,4-c]pyrazole-5(1H)-carboxylate] | 8.13 | 80.2 |
| C[C@@H]([C@@H](OC(=O)N1Cc2c(NC(=O)c3ccc(F)cc3)n[nH]c2C1(C)C)c1ccccc1)N(C)C [Example 45, (1S,2S)-2-(dimethylamino)-1-phenylpropyl 3-[(4-fluorobenzoyl)amino]-6,6-dimethyl-4,6-dihydropyrrolo[3,4-c]pyrazole-5(1H)-carboxylate] | 318 | 21.1 |
| CN(C)C[C@@H](OC(=O)N1Cc2c(NC(=O)Cc3ccc(F)cc3)n[nH]c2C1(C)C)c1ccccc1 [Example 18, (1S)-2-(dimethylamino)-1-phenylethyl 3-{[(4-fluorophenyl)acetyl]amino}-6,6-dimethyl-4,6-dihydropyrrolo[3,4-c]pyrazole-5(1H)-carboxylate] | 23.3 | 28.3 |
| CN(C)C[C@@H](OC(=O)N1Cc2c(NC(=O)[C@@H]3C[C@H]3c3ccccc3)n[nH]c2C1(C)C)c1ccccn1 [Example 29, (1R)-2-(dimethylamino)-1-pyridin-2-ylethyl 6,6-dimethyl-3-({[trans-2-phenylcyclopropyl]carbonyl}-amino)-4,6-dihydropyrrolo[3,4-c]pyrazole-5(1H)-carboxylate] | 27.1 | 419 |
| CN(C)C[C@@H](NC(=O)N1Cc2c(NC(=O)c3ccc(C(F)(F)F)cc3)n[nH]c2C1(C)C)c1ccccc1 [Example 50, N-[(1S)-2-(dimethylamino)-1-phenylethyl]-6,6-dimethyl-3-{[4-(trifluoromethyl)benzoyl]amino}-4,6-dihydropyrrolo[3,4-c]pyrazole-5(1H)-carboxamide] | 33.8 | 335 |
| CN(C)C[C@@H](OC(=O)N1Cc2c(NC(=O)c3ccccc3)n[nH]c2C1(C)C)c1ccccn1 [Example 24, (1R)-2-(dimethylamino)-1-pyridin-2-ylethyl 3-(benzoylamino)-6,6-dimethyl-4,6-dihydropyrrolo[3,4-c]pyrazole-5(1H)-carboxylate] | 63.7 | 140 |
| CO[C@H](C)C(=O)Nc1n[nH]c2c1CN(C(=O)O[C@H](CN(C)C)c1ccccc1)C2(C)C [Example 117, (S)-2-(dimethylamino)-1-phenylethyl 3-((R)-2-methoxypropanamido)-6,6-dimethylpyrrolo[3,4-c]pyrazole-5(1H,4H,6H)-carboxylate] | 357 | 8.8 |
| CN(C)C[C@H](Cc1ccccc1)OC(=O)N1Cc2c(NC(=O)c3ccccc3)n[nH]c2C1(C)C [Example 30, (1S)-1-benzyl-2-(dimethylamino)ethyl 3-(benzoylamino)-6,6-dimethyl-4,6-dihydropyrrolo[3,4-c]pyrazole-5(1H)-carboxylate] | 106 | 2090 |
| CN(C)C[C@@H](NC(=O)N1Cc2c(NC(=O)c3nc4ccccc4s3)n[nH]c2C1(C)C)c1ccccc1 [Example 104, (S)-N-(5-((2-(dimethylamino)-1-phenylethyl)carbamoyl)-6,6-dimethyl-1,4,5,6-tetrahydropyrrolo[3,4-c]pyrazol-3-yl)benzo[d]thiazole-2-carboxamide] | 89 | 9 |
| CN(C)CC(OC(=O)N1Cc2c(n[nH]c2NC(=O)C2CCCO2)C1(C)C)c1cccc(F)c1 (single isomer, unassigned) [Example 84A] | 70 | 16 |
| CC(=O)Nc1n[nH]c2c1CN(C(=O)O[C@H](CN(C)C)c1ccccc1)C2(C)C [Example 7, (1S)-2-(dimethylamino)-1-phenylethyl 3-(acetylamino)-6,6-dimethyl-4,6-dihydropyrrolo[3,4-c]pyrazole-5(1H)-carboxylate] | 314 | 230 |
| CN(C)C[C@@H](OC(=O)N1Cc2c(NC(=O)[C@H]3CCCO3)n[nH]c2C1(C)C)c1ccccc1 [Example 89, (S)-2-(dimethylamino)-1-phenylethyl 6,6-dimethyl-3-((R)-tetrahydrofuran-2-carboxamido)pyrrolo[3,4-c]pyrazole-5(1H,4H,6H)-carboxylate] | 156 | 10 |
| CN(C)C[C@@H](OC(=O)N1Cc2c(NC(=O)C3CCOC3)n[nH]c2C1(C)C)c1ccccc1 (stereo partly drawn) [Example 119, (S)-2-(dimethylamino)-1-phenylethyl 6,6-dimethyl-3-(tetrahydrofuran-3-carboxamido)pyrrolo[3,4-c]pyrazole-5(1H,4H,6H)-carboxylate] | 260 | 52 |
| CN(C)C[C@@H](OC(=O)N1Cc2c(NC(=O)c3cccc4c3OCC4)n[nH]c2C1(C)C)c1ccccc1 [Example 81, (1S)-2-(dimethylamino)-1-phenylethyl 3-[(2,3-dihydro-1-benzofuran-7-ylcarbonyl)amino]-6,6-dimethyl-4,6-dihydropyrrolo[3,4-c]pyrazole-5(1H)-carboxylate] | 240 | 104 |
| CN(C)CC(OC(=O)N1Cc2c(NC(=O)c3ccc(F)cc3)n[nH]c2C1(C)C)c1nccs1 (stereo not shown) [Example 93, 2-(dimethylamino)-1-(thiazol-2-yl)ethyl 3-(4-fluorobenzamido)-6,6-dimethylpyrrolo[3,4-c] pyrazole-5(1H,4H,6H)-carboxylate] | 335 | 178 |
| CN(C)C[C@@H](OC(=O)N1Cc2c(NC(=O)c3ccc(F)cc3F)n[nH]c2C1(C)C)c1ccccc1 [Example 4, (1S)-2-(dimethylamino)-1-phenylethyl 3-[(2,4-difluorobenzoyl)amino]-6,6-dimethyl-4,6-dihydropyrrolo[3,4-c]pyrazole-5(1H)-carboxylate] | 68 | 14.6 |
| CN(C)C[C@@H](OC(=O)N1Cc2c(NC(=O)c3ccccc3F)n[nH]c2C1(C)C)c1ccccn1 [Example 26, (1R)-2-(dimethylamino)-1-pyridin-2-ylethyl 3-[(2-fluorobenzoyl)amino]-6,6-dimethyl-4,6-dihydropyrrolo[3,4-c]pyrazole-5(1H)-carboxylate] | 278 | 244 |
